# Measurements as given in ChEMBL document CHEMBL4138123, “Design, synthesis and biological evaluation of novel pyrazolochalcones as potential modulators of PI3K/Akt/mTOR pathway and inducers of apoptosis in breast cancer cells” (Eur J Med Chem, 2017).
# Columns and labels:
# Assay type in all cases: functional
# CAKI-1 = assay: Cytotoxicity against human Caki1 cells assessed as cell growth at 0.1 uM after 48 hrs by sulforhodamine B assay relative to control; settings: CAKI-1, 48 h, read-out: Activity
# A549 = assay: Cytotoxicity against human A549/ATCC cells assessed as cell growth at 0.1 uM after 48 hrs by sulforhodamine B assay relative to control; settings: A549, 48 h, read-out: Activity
# SR = assay: Cytotoxicity against human SR cells assessed as cell growth at 10 uM after 48 hrs by sulforhodamine B assay relative to control; settings: read-out: Activity
# Malme-3M = assay: Cytotoxicity against human MALME-3M cells assessed as cell growth at 0.01 uM after 48 hrs by sulforhodamine B assay relative to control; settings: read-out: Activity
# A498 = assay: Cytotoxicity against human A498 cells assessed as cell growth at 1 uM after 48 hrs by sulforhodamine B assay relative to control; settings: A498, 48 h, read-out: Activity
# Hs-578T [1] = assay: Cytotoxicity against human Hs 578T cells assessed as cell growth at 10 uM after 48 hrs by sulforhodamine B assay relative to control; settings: read-out: Activity
# HCT-116 = assay: Cytotoxicity against human HCT116 cells assessed as cell growth at 100 uM after 48 hrs by sulforhodamine B assay relative to control; settings: HCT-116, 48 h, read-out: Activity
# NCI-H522 = assay: Cytotoxicity against human NCI-H522 cells assessed as cell growth at 1 uM after 48 hrs by sulforhodamine B assay relative to control; settings: NCI-H522, 48 h, read-out: Activity
# NCI/ADR-RES = assay: Cytotoxicity against human NCI/ADR-RES cells assessed as cell growth at 100 uM after 48 hrs by sulforhodamine B assay relative to control; settings: read-out: Activity
# NCI-H23 [2] = assay: Cytotoxicity against human NCI-H23 cells assessed as growth inhibition after 48 hrs by sulforhodamine B assay; settings: NCI-H23, 48 h; for CC50: read-out: LC50 (the source's name)
# UACC-62 = assay: Cytotoxicity against human UACC62 cells assessed as cell growth at 10 uM after 48 hrs by sulforhodamine B assay relative to control; settings: UACC-62, 48 h, read-out: Activity
# NCI-H322M = assay: Cytotoxicity against human NCI-H322M cells assessed as cell growth at 10 uM after 48 hrs by sulforhodamine B assay relative to control; settings: read-out: Activity
# MDA-MB-468 = assay: Cytotoxicity against human MDA-MB-468 cells assessed as cell growth at 1 uM after 48 hrs by sulforhodamine B assay relative to control; settings: MDA-MB-468, 48 h, read-out: Activity
# CCRF-CEM = assay: Cytotoxicity against human CCRF-CEM cells assessed as cell growth at 100 uM after 48 hrs by sulforhodamine B assay relative to control; settings: read-out: Activity
# NCI-H23 [3] = assay: Cytotoxicity against human NCI-H23 cells assessed as cell growth at 100 uM after 48 hrs by sulforhodamine B assay relative to control; settings: NCI-H23, 48 h, read-out: Activity
# SW-620 [4] = assay: Cytotoxicity against human SW620 cells assessed as cell growth at 10 uM after 48 hrs by sulforhodamine B assay relative to control; settings: SW-620, 48 h, read-out: Activity
# SN12C = assay: Cytotoxicity against human SN12C cells assessed as growth inhibition after 48 hrs by sulforhodamine B assay
# MDA-MB-435 = assay: Cytotoxicity against human MDA-MB-435 cells assessed as cell growth at 10 uM after 48 hrs by sulforhodamine B assay relative to control; settings: MDA-MB-435, 48 h, read-out: Activity
# HCT-15 = assay: Cytotoxicity against human HCT15 cells assessed as cell growth at 1 uM after 48 hrs by sulforhodamine B assay relative to control; settings: HCT-15, 48 h, read-out: Activity
# TK-10 [5] = assay: Cytotoxicity against human TK10 cells assessed as cell growth at 100 uM after 48 hrs by sulforhodamine B assay relative to control; settings: TK-10, 48 h, read-out: Activity
# NCI-H226 = assay: Cytotoxicity against human NCI-H226 cells assessed as cell growth at 100 uM after 48 hrs by sulforhodamine B assay relative to control; settings: NCI-H226, 48 h, read-out: Activity
# TK-10 [6] = assay: Cytotoxicity against human TK10 cells assessed as cell growth at 1 uM after 48 hrs by sulforhodamine B assay relative to control; settings: TK-10, 48 h, read-out: Activity
# SK-OV-3 = assay: Cytotoxicity against human SKOV3 cells assessed as growth inhibition after 48 hrs by sulforhodamine B assay; settings: SK-OV-3, 48 h
# OVCAR-4 [7] = assay: Cytotoxicity against human OVCAR4 cells assessed as cell growth at 1 uM after 48 hrs by sulforhodamine B assay relative to control; settings: OVCAR-4, 48 h, read-out: Activity
# MDA-MB-231 = assay: Cytotoxicity against human MDA-MB-231 cells assessed as cell growth at 1 uM after 48 hrs by sulforhodamine B assay relative to control; settings: MDA-MB-231, 48 h, read-out: Activity
# SF-268 = assay: Cytotoxicity against human SF268 cells assessed as growth inhibition after 48 hrs by sulforhodamine B assay; settings: SF-268, 48 h; for CC50: read-out: LC50 (the source's name)
# SK-MEL-5 [8] = assay: Cytotoxicity against human SK-MEL-5 cells assessed as cell growth at 0.01 uM after 48 hrs by sulforhodamine B assay relative to control; settings: SK-MEL-5, 48 h, read-out: Activity
# M14 = assay: Cytotoxicity against human M14 cells assessed as cell growth at 0.1 uM after 48 hrs by sulforhodamine B assay relative to control; settings: M14, 48 h, read-out: Activity
# OVCAR-4 [9] = assay: Cytotoxicity against human OVCAR4 cells assessed as cell growth at 100 uM after 48 hrs by sulforhodamine B assay relative to control; settings: OVCAR-4, 48 h, read-out: Activity
# MOLT-4 = assay: Cytotoxicity against human MOLT4 cells assessed as cell growth at 0.01 uM after 48 hrs by sulforhodamine B assay relative to control; settings: MOLT-4, 48 h, read-out: Activity
# SK-MEL-5 [10] = assay: Cytotoxicity against human SK-MEL-5 cells assessed as growth inhibition after 48 hrs by sulforhodamine B assay; settings: SK-MEL-5, 48 h
# BT-549 = assay: Cytotoxicity against human BT549 cells assessed as cell growth at 0.01 uM after 48 hrs by sulforhodamine B assay relative to control; settings: BT-549, 48 h, read-out: Activity
# RPMI-8226 = assay: Cytotoxicity against human RPMI8226 cells assessed as cell growth at 0.01 uM after 48 hrs by sulforhodamine B assay relative to control; settings: RPMI-8226, 48 h, read-out: Activity
# SW-620 [11] = assay: Cytotoxicity against human SW620 cells assessed as cell growth at 0.1 uM after 48 hrs by sulforhodamine B assay relative to control; settings: SW-620, 48 h, read-out: Activity
# Hs-578T [12] = assay: Cytotoxicity against human Hs 578T cells assessed as cell growth at 0.1 uM after 48 hrs by sulforhodamine B assay relative to control; settings: read-out: Activity
compound,measurement,setting,value
COc1ccc(-c2cc(/C=C/C(=O)c3ccc(N)cc3)[nH]n2)cc1,growth at 0.1 µM,CAKI-1,97%
same,growth at 0.1 µM,A549,98%
same,growth at 10 µM,SR,-12%
same,growth at 0.01 µM,Malme-3M,93%
same,growth at 1 µM,A498,90%
same,growth at 10 µM,Hs-578T [1],22%
same,growth at 100 µM,HCT-116,-15%
same,growth at 1 µM,NCI-H522,61%
same,growth at 100 µM,NCI/ADR-RES,-38%
same,GI50,NCI-H23 [2],3.22 µM
same,TGI,NCI-H23 [2],13.1 µM
same,CC50,NCI-H23 [2],68.4 µM
same,growth at 10 µM,UACC-62,-89%
same,growth at 10 µM,NCI-H322M,-2%
same,growth at 1 µM,MDA-MB-468,29%
same,growth at 100 µM,CCRF-CEM,-68%
same,growth at 100 µM,NCI-H23 [3],-62%
same,growth at 10 µM,SW-620 [4],-26%
same,GI50,SN12C,1.89 µM
same,LC50,SN12C,34.9 µM
same,TGI,SN12C,6.63 µM
same,growth at 10 µM,MDA-MB-435,-16%
same,growth at 1 µM,HCT-15,50%
same,growth at 100 µM,TK-10 [5],-91%
same,growth at 100 µM,NCI-H226,-51%
same,growth at 1 µM,TK-10 [6],81%
same,GI50,SK-OV-3,4.72 µM
same,LC50,SK-OV-3,63.6 µM
same,TGI,SK-OV-3,18 µM
same,growth at 1 µM,OVCAR-4 [7],52%
same,growth at 1 µM,MDA-MB-231,78%
same,GI50,SF-268,1.81 µM
same,TGI,SF-268,5.31 µM
same,CC50,SF-268,45.7 µM
same,growth at 0.01 µM,SK-MEL-5 [8],97%
same,growth at 0.1 µM,M14,103%
same,growth at 100 µM,OVCAR-4 [9],-68%
same,growth at 0.01 µM,MOLT-4,97%
same,GI50,SK-MEL-5 [10],2.71 µM
same,LC50 (concentration killing 50% of cells),SK-MEL-5 [10],30.4 µM
same,TGI,SK-MEL-5 [10],9.25 µM
same,growth at 0.01 µM,BT-549,92%
same,growth at 0.01 µM,RPMI-8226,99%
same,growth at 0.1 µM,SW-620 [11],101%
same,growth at 0.1 µM,Hs-578T [12],97%
COc1ccc(C(=O)/C=C/c2cc(-c3cc(OC)c(OC)c(OC)c3)n[nH]2)cc1,growth at 0.1 µM,CAKI-1,93%
same,growth at 0.1 µM,A549,101%
same,growth at 10 µM,SR,3%
same,growth at 0.01 µM,Malme-3M,95%
same,growth at 1 µM,A498,84%
same,growth at 10 µM,Hs-578T [1],13%
same,growth at 100 µM,HCT-116,-10%
same,growth at 1 µM,NCI-H522,75%
same,growth at 100 µM,NCI/ADR-RES,-6%
same,TGI,NCI-H23 [2],12.2 µM
same,CC50,NCI-H23 [2],> 100 µM
same,growth at 10 µM,UACC-62,-74%
same,growth at 10 µM,NCI-H322M,-60%
same,growth at 1 µM,MDA-MB-468,68%
same,growth at 100 µM,CCRF-CEM,-16%
same,growth at 100 µM,NCI-H23 [3],-23%
same,growth at 10 µM,SW-620 [4],-69%
same,growth at 10 µM,MDA-MB-435,-30%
same,growth at 1 µM,HCT-15,72%
same,growth at 100 µM,TK-10 [5],-20%
same,growth at 100 µM,NCI-H226,-35%
same,growth at 1 µM,TK-10 [6],92%
same,LC50,SK-OV-3,> 100 µM
same,TGI,SK-OV-3,20.5 µM
same,growth at 1 µM,OVCAR-4 [7],80%
same,growth at 1 µM,MDA-MB-231,81%
same,TGI,SF-268,5.12 µM
same,CC50,SF-268,> 100 µM
same,growth at 0.01 µM,SK-MEL-5 [8],100%
same,growth at 0.1 µM,M14,97%
same,growth at 100 µM,OVCAR-4 [9],-15%
same,growth at 0.01 µM,MOLT-4,103%
same,LC50 (concentration killing 50% of cells),SK-MEL-5 [10],6.1 µM
same,TGI,SK-MEL-5 [10],3.24 µM
same,growth at 0.01 µM,BT-549,97%
same,growth at 0.01 µM,RPMI-8226,98%
same,growth at 0.1 µM,SW-620 [11],97%
same,growth at 0.1 µM,Hs-578T [12],100%
